Results from PMC7481439 (Frontiers in Pediatrics, 2020).
Marks after values point to notes of the source that are not given here.

How the values were obtained:
[1] = volume of distribution, listed under physico-chemical data; source not stated for Vd; cited from earlier work
[2] = parameters: method as in PMID 18048412; details: Drug Bank online database; cited from earlier work
[3] = Table 2; Drug Bank online database; cited from earlier work
[4] = In vitro closed-loop ECMO circuit model: drug recovery / sequestration
[5] = neonatal centrifugal-based circuit, volume 200 ml, recovery at 180 min, n = 2; ref Wildschut ([18]); cited from earlier work
[6] = adult centrifugal-based circuit, volume 800 ml, n = 3, ref Lemaitre ([39]); cited from earlier work
[7] = Spontaneous drug degradation (T2 control sample analysed at 24 h); details: whole blood control sample drawn at 2 min, kept in EDTA tube at the temperature of the circuits until 24 h; difference in drug recovery between T2 and T2-24; average
[8] = adult centrifugal-based circuit, volume 670 ml, n = 4, ref Shekar ([22]); cited from earlier work

Row | Compound | Vd [1] [L/kg] | LogP [2] | PB % [3] [%] | Decrease of drug level after 24 h, ILA active ([4]; ILA active circuit, whole blood primed, 24-h exposure) [%] | Mean drug recovery after 24 h of circulation, r-ML ([4]; MiniLung (infant) circuit, whole blood primed, 700 ml/min, 24 h, dose VOR 40 mg, VAN 54 mg, expected level VOR 117.1, VAN 177.1 mg/L, corrected for spontaneous degradation, plasma, LC-MS/MS (VOR) or immune-assay (VAN), mean (±SD), n = 2 circuits, SD) | Mean drug recovery after 24 h of circulation, r-MLP ([4]; MiniLung petite (neonatal) circuit, whole blood primed, 500 ml/min, 24 h, dose VOR 35 mg, VAN 45 mg, expected level VOR 140, VAN 180 mg/L, corrected for spontaneous degradation, plasma, LC-MS/MS (VOR) or immune-assay (VAN), mean (±SD), n = 3 circuits, SD) | Decrease of drug level after 24 h, XLung ([4]; XLung circuit, whole blood primed, 24-h exposure) [%] | Mean drug recovery after 24 h of circulation, r-XL ([4]; Xlung (adult) circuit, whole blood primed, […], 24 h, dose VOR 68 mg, VAN 91.8 mg, expected level VOR 143.2, VAN 193.7 mg/L, corrected for spontaneous degradation, plasma, LC-MS/MS (VOR) or immune-assay (VAN), mean (±SD), n = 2 circuits, SD) | Mean drug recovery at 24 h, ML ([4]; current experiment, MiniLung circuit, whole blood primed, volume 310 ml, 24 h, n = 2) [%] | Mean drug recovery at 24 h, MLP ([4]; current experiment, MiniLung petite circuit, whole blood primed, volume 250 ml, 24 h, n = 3) [%] | Mean drug recovery at 24 h, Xlung ([4]; current experiment, Xlung circuit, whole blood primed, volume 480 ml, 24 h, n = 2) [%] | Mean drug recovery at 24 h, iLA ([4]; current experiment, iLAActivve circuit, whole blood primed, volume 400 ml, 24 h, n = 2) [%] | Mean drug recovery after 24 h of circulation, r-iLA ([4]; iLAActivve iLA (pediatric) circuit, whole blood primed, […], 24 h, dose VOR 52.5 mg, VAN 67.5 mg, expected level VOR 134.7, VAN 173.2 mg/L, corrected for spontaneous degradation, plasma, LC-MS/MS (VOR) or immune-assay (VAN), mean (±SD), n = 2 circuits) | Mean percentage of drug recovery at 24 h ([4]; mean over all nine whole-blood primed circuits (MLP, ML, iLA, XLung), single bolus, pre-membrane (P2) plasma samples, 24 h, corrected for average spontaneous degradation, LC-MS/MS (voriconazole), immune-assay Architect (vancomycin), samples in triplicate) [%] | Decrease of drug level after 24 h, minilung ([4]; minilung circuit, whole blood primed, 24-h exposure) [%] | Mean drug recovery, Medos n [5] | Mean drug recovery at 24 h, Quadrox a (Lemaitre) [6] [%] | Spontaneous degradation [7] [%] | Mean drug recovery at 24 h, Quadrox a (Shekar) [8] [%]
1 | C[C@@H](c1ncncc1F)[C@](O)(Cn1cncn1)c1ccc(F)cc1F [voriconazole] | 4.6 | 1.8 | 58 |  |  |  |  |  |  |  |  |  |  |  |  |  |  |  | 
2 | CN[C@H](CC(C)C)C(=O)N[C@H]1C(=O)N[C@@H](CC(N)=O)C(=O)N[C@H]2C(=O)N[C@H]3C(=O)N[C@H](C(=O)N[C@H](C(=O)O)c4cc(O)cc(O)c4-c4cc3ccc4O)[C@H](O)c3ccc(c(Cl)c3)Oc3cc2cc(c3O[C@@H]2O[C@H](CO)[C@@H](O)[C@H](O)[C@H]2O[C@H]2C[C@](C)(N)[C@H](O)[C@H](C)O2)Oc2ccc(cc2Cl)[C@H]1O [vancomycin] | 0.4 to 1 |  | 50 | 38 | 133.2 (±49.7) mg/L | 112 (±31.6) mg/L | 50 | 96.5 (±13.5) mg/L | 73 | 60 | 48 | 60 | 108.5 (±4,4) mg/L | 62 | 25 | 67.1^* % | 100 | 2.4 | 90
